Data from BigSolDB 2.1.

COC1=C(OC)C(=O)C(C/C=C(\C)CC/C=C(\C)CC/C=C(\C)CC/C=C(\C)CC/C=C(\C)CC/C=C(\C)CC/C=C(\C)CC/C=C(\C)CC/C=C(\C)CCC=C(C)C)=C(C)C1=O
solubility (mole fraction)
Conditions | in ethanol | in ethyl acetate | in isopropanol | in n-butanol | in n-hexane | in n-propanol
270.15 K | 1e-05 | 0.0006 | 7e-06 | 1e-05 | 0.0009 | –
280.15 K | 1.1e-05 | 0.0033 | 8e-06 | 1.7e-05 | 0.0044 | 0.0002
290.15 K | 1.6e-05 | 0.0178 | 6.2e-05 | 0.0001 | 0.0207 | 0.0005
300.15 K | 6.1e-05 | 0.09 | 0.0005 | 0.0011 | 0.0931 | 0.0014
310.15 K | 0.0002 | 0.431 | 0.0029 | 0.0107 | 0.399 | 0.0039
320.15 K | 0.0014 | 0.647 | 0.0165 | 0.0934 | 0.55 | 0.011
